Each structure is given as a SMILES string. Bridge positions count the residues as written; N and C are the ends. Peptide text beside a SMILES is read from it.

One experiment deals with G+ Bacteria. As to the kind of experiment: Geometric mean of MICs and TI value. The experiment is classed as cell-based. The conditions noted are these: geometric mean of MICs against tested Gram-positive bacteria. The method, then: (§1) The therapeutic potential of antimicrobial agents was valued based on their selectivity toward bacteria in reference to erythrocytes. The TI value was calculated from the results of antibacterial and haemolysis experiments of peptides using the following formula:TI value = HC10 / GMMICs.
(§2) GM was the geometric mean of MICs against all tested bacteria.

A further experiment relates to G− Bacteria. Briefly: Geometric mean of MICs and TI value. Type of experiment: cell-based. The conditions noted are these: geometric mean of MICs against tested Gram-negative bacteria. The method, then: as §1, §2
In the next experiment the test system is P. aeruginosa 01 biofilm. The experiment is classed as cell-based, Pseudomonas aeruginosa. The conditions noted are these: for MBIC: lowest concentration inhibiting at least 90% of biofilm formation; for MBEC: minimum concentration eradicating at least 99% of the biofilm. The text has this: (§3) The minimum bactericidal concentration (MBC) is defined as the lowest antibiotic concentration that kills 99.9% of the inoculum. The minimum biofilm inhibitory concentration (MBIC) is the lowest concentration that inhibits at least 90% of the formation of biofilm. The minimum biofilm eradication concentration (MBEC) is the minimum concentration that can eradicate at least 99% of the biofilm. In addition to the eight microorganisms described previously, this experiment was also applied to P. aeruginosa (ATCC 27853, ATCC BAA-2108, P. aeruginosa 01, P. aeruginosa 14).

Another experiment deals with P. aeruginosa 14 biofilm. Type of experiment: cell-based, Pseudomonas aeruginosa. The conditions noted are these: for MBIC: lowest concentration inhibiting at least 90% of biofilm formation; for MBEC: minimum concentration eradicating at least 99% of the biofilm.
From the text: as §3

The test system of experiment [1] is P. aeruginosa ATCC 27853 biofilm. The experiment is classed as cell-based, Pseudomonas aeruginosa. Particulars: for MBIC: lowest concentration inhibiting at least 90% of biofilm formation; for MBEC: minimum concentration eradicating at least 99% of the biofilm.
From the text: as §3

The test system of experiment [2] is P. aeruginosa ATCC BAA-2108 biofilm. Type of experiment: cell-based, Pseudomonas aeruginosa. Particulars: for MBIC: lowest concentration inhibiting at least 90% of biofilm formation; for MBEC: minimum concentration eradicating at least 99% of the biofilm.
From the text: as §3

The subject of experiment [3] is P. aeruginosa ATCC CRM 9027 biofilm. The experiment is classed as cell-based, Pseudomonas aeruginosa. Particulars: for MBIC: lowest concentration inhibiting at least 90% of biofilm formation; for MBEC: minimum concentration eradicating at least 99% of the biofilm.
From the text: as §3

Take `CC[C@H](C)[C@H](NC(=O)[C@H](CCCCN)NC(=O)[C@H](CCCCN)NC(=O)CNC(=O)[C@H](C)NC(=O)CNC(=O)[C@H](CC(C)C)NC(=O)[C@@H](NC(=O)CNC(=O)[C@H](CO)NC(=O)[C@H](CC(C)C)NC(=O)[C@H](CC(C)C)NC(=O)CN)C(C)C)C(=O)N[C@H](C(=O)N[C@H]1CSSC[C@@H](C(=O)O)NC(=O)[C@H](CCCNC(=N)N)NC(=O)CNC(=O)[C@H](CO)NC(=O)[C@H](CC(C)C)NC(=O)CNC1=O)C(C)C` [Nigrosin-6VL] (H-GLLSGVLGAGKKIVCGLSGRC-OH; disulfide 15-21): in the experiment on G+ Bacteria, the “GM (geometric mean of MICs), G+ Bacteria” value was 101.59 µM. Besides, the “GM (geometric mean of MICs), G− Bacteria” value with G− Bacteria worked out at 90.51 µM. In addition, the MBIC (in the experiment with P. aeruginosa 01 biofilm; in the experiment with P. aeruginosa 14 biofilm; in experiment [1]; in experiment [2]; in experiment [3]) was >128/>128 µM each time. Besides, the MBEC (in the experiment on P. aeruginosa 01 biofilm; in the experiment on P. aeruginosa 14 biofilm; in experiment [1]; in experiment [2]; in experiment [3]) was >128/>128 µM throughout.

For `CC[C@H](C)[C@H](NC(=O)[C@H](CCCCN)NC(=O)[C@H](CCCCN)NC(=O)CNC(=O)[C@H](C)NC(=O)[C@H](CCCNC(=N)N)NC(=O)[C@H](CC(C)C)NC(=O)[C@@H](NC(=O)[C@H](C)NC(=O)[C@H](CCCNC(=N)N)NC(=O)[C@H](CC(C)C)NC(=O)[C@H](CC(C)C)NC(=O)CN)C(C)C)C(=O)N[C@H](C(=O)N[C@H]1CSSC[C@@H](C(=O)O)NC(=O)[C@H](CCCNC(=N)N)NC(=O)CNC(=O)[C@H](CO)NC(=O)[C@H](CC(C)C)NC(=O)CNC1=O)C(C)C` [Peptide 2170-2R] (H-GLLRAVLRAGKKIVCGLSGRC-OH; disulfide 15-21), the “GM (geometric mean of MICs), G− Bacteria” value with G− Bacteria turned out to be 11.31 µM. In addition, the MBIC in the experiment on P. aeruginosa 01 biofilm was 32 µM; in the experiment on P. aeruginosa 14 biofilm, >128/>128 µM; in experiment [1], 8 µM; in experiment [2], >128/>128 µM; in experiment [3] it was >128/>128 µM. Also, the MBEC in the experiment with P. aeruginosa 01 biofilm was 64 µM; with P. aeruginosa 14 biofilm it was >128/>128 µM; in experiment [1], 16 µM; in experiment [2] it was >128/>128 µM; in experiment [3], >128/>128 µM.

These data come from paper PMC11274128, “Modification and Synergistic Studies of a Novel Frog Antimicrobial Peptide against Pseudomonas aeruginosa Biofilms” (Antibiotics, 2024).
